Measured values published in ChEMBL document CHEMBL1201862, “PubChem BioAssay data set” (2004).
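Growth conditions: 96-well plates. Treatment: test compound, 48 hours, 5 concentrations. Analysis: linear interpolation between bracketing concentrations; unreached endpoints set to highest concentration. GI50: concentration for 50% inhibition of growth.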 Calls of active or inactive are those of the source. Rule as the data show it: active = GI50 up to about 1.1 µM and inactive = higher.

Tests used:
Test in all cases: growth of human tumour cells (NCI), 48 h
UO-31 = system: UO-31
HL-60 = system: HL-60
MOLT-4 = system: MOLT-4
HCT-15 = system: HCT-15
SF-268 = system: SF-268
SNB-19 = system: SNB-19
SNB-75 = system: SNB-75
NCI-H522 = system: NCI-H522
KM12 = system: KM12
HOP-62 = system: HOP-62
SN12C = system: SN12C
NCI-H460 = system: NCI-H460
K562 = system: K562
HCT-116 = system: HCT-116
SK-MEL-5 = system: SK-MEL-5
A549 = system: A549
IGROV-1 = system: IGROV-1
OVCAR-8 = system: OVCAR-8
SK-OV-3 = system: SK-OV-3
EKVX = system: EKVX

With `Cc1[nH]nc(-c2ccon2)c1N=O` the GI50 (UO-31) was 19.8 µM (inactive), the GI50 (HL-60) was 12.1 µM (inactive) and the GI50 (MOLT-4) was 2 µM (inactive). For the same compound, the GI50 (HCT-15) was 18.2 µM, the GI50 (SF-268) was 20 µM (inactive) and the GI50 (SNB-19) was 26.9 µM (inactive). For the same compound, the GI50 (SNB-75) was 32.2 µM (inactive), the GI50 (NCI-H522) was 20 µM (inactive) and the GI50 (KM12) was 21 µM (inactive). For the same compound, the GI50 (HOP-62) was 21 µM (inactive), the GI50 (SN12C) was 26.7 µM (inactive) and the GI50 (NCI-H460) was 36.1 µM (inactive). The GI50 (K562) was 18.5 µM (inactive), the GI50 (HCT-116) was 23.1 µM (inactive) and the GI50 (SK-MEL-5) was 18.2 µM (inactive). For the same compound, the GI50 (A549) was 23.7 µM (inactive), the GI50 (IGROV-1) was 23 µM (inactive) and the GI50 (OVCAR-8) was 17 µM (inactive). The GI50 (SK-OV-3) was 26.3 µM (inactive) and the GI50 (EKVX) was 16.7 µM (inactive).

With `COc1cccc(C2SC(=N)Nc3c2c(C)nn3C(=O)Cc2ccccc2)c1` (stereo not given) the GI50 (UO-31) was > 100 µM (inactive), the GI50 (HL-60) was > 100 µM (inactive) and the GI50 (MOLT-4) was > 100 µM (inactive). The GI50 (HCT-15) was > 100 µM, the GI50 (SF-268) was > 100 µM (inactive) and the GI50 (SNB-19) was > 100 µM (inactive). The GI50 (SNB-75) was 51.5 µM (inactive), the GI50 (NCI-H522) was > 100 µM (inactive) and the GI50 (KM12) was > 100 µM (inactive). The GI50 (HOP-62) was > 100 µM (inactive), the GI50 (SN12C) was > 100 µM (inactive) and the GI50 (NCI-H460) was > 100 µM (inactive). The GI50 (K562) was > 100 µM (inactive), the GI50 (HCT-116) was > 100 µM (inactive) and the GI50 (SK-MEL-5) was > 100 µM (inactive). For the same compound, the GI50 (A549) was > 100 µM (inactive), the GI50 (IGROV-1) was > 100 µM (inactive) and the GI50 (OVCAR-8) was > 100 µM (inactive). The GI50 (SK-OV-3) was > 100 µM (inactive) and the GI50 (EKVX) was > 100 µM (inactive).

`COc1ccc2c(c1)CCC(CN1CCN(CCOC(c3ccccc3)c3ccccc3)CC1)C2O` (stereo not given) was tested, and the GI50 (UO-31) was 15.4 µM (inactive), the GI50 (HL-60) was 2.81 µM (inactive) and the GI50 (MOLT-4) was 11.8 µM (inactive). For the same compound, the GI50 (HCT-15) was 10.8 µM, the GI50 (SF-268) was 16.6 µM (inactive) and the GI50 (SNB-19) was 18.3 µM (inactive). The GI50 (SNB-75) was 17.9 µM (inactive), the GI50 (NCI-H522) was 16.6 µM (inactive) and the GI50 (KM12) was 18.3 µM (inactive). The GI50 (HOP-62) was 19 µM (inactive), the GI50 (SN12C) was 13.5 µM (inactive) and the GI50 (NCI-H460) was 16.7 µM (inactive). The GI50 (K562) was 6.58 µM (inactive), the GI50 (HCT-116) was 12.2 µM (inactive) and the GI50 (SK-MEL-5) was 8.3 µM (inactive). The GI50 (A549) was 18.2 µM (inactive), the GI50 (IGROV-1) was 15.4 µM (inactive) and the GI50 (OVCAR-8) was 14.5 µM (inactive). For the same compound, the GI50 (SK-OV-3) was 17.9 µM (inactive) and the GI50 (EKVX) was 11.1 µM (inactive).

For `Cn1cc(C(=O)c2ccccc2)ccc1=O`, the GI50 (UO-31) was > 100 µM (inactive), the GI50 (HL-60) was > 100 µM (inactive) and the GI50 (MOLT-4) was > 100 µM (inactive). For the same compound, the GI50 (HCT-15) was > 100 µM, the GI50 (SF-268) was > 100 µM (inactive) and the GI50 (SNB-19) was > 100 µM (inactive). For the same compound, the GI50 (SNB-75) was > 100 µM (inactive), the GI50 (NCI-H522) was > 100 µM (inactive) and the GI50 (KM12) was > 100 µM (inactive). The GI50 (HOP-62) was > 100 µM (inactive), the GI50 (SN12C) was > 100 µM (inactive) and the GI50 (NCI-H460) was > 100 µM (inactive). For the same compound, the GI50 (K562) was > 100 µM (inactive), the GI50 (HCT-116) was > 100 µM (inactive) and the GI50 (SK-MEL-5) was > 100 µM (inactive). The GI50 (A549) was > 100 µM (inactive), the GI50 (IGROV-1) was > 100 µM (inactive) and the GI50 (OVCAR-8) was > 100 µM (inactive). For the same compound, the GI50 (SK-OV-3) was > 100 µM (inactive) and the GI50 (EKVX) was > 100 µM (inactive).

With `Nc1c(/N=N/c2ccc(-c3ccc(/N=N/c4c(O)ccc5cc(S(=O)(=O)O)cc(S(=O)(=O)O)c45)cc3)cc2)c(S(=O)(=O)O)cc2cc(S(=O)(=O)O)c(/N=N/c3ccccc3)c(O)c12` the GI50 (UO-31) was 6.84 µM (inactive), the GI50 (HL-60) was 85.1 µM (inactive) and the GI50 (MOLT-4) was > 100 µM (inactive). For the same compound, the GI50 (HCT-15) was > 100 µM, the GI50 (SF-268) was > 100 µM (inactive) and the GI50 (SNB-19) was > 100 µM (inactive). The GI50 (SNB-75) was 35.7 µM (inactive), the GI50 (NCI-H522) was > 100 µM (inactive) and the GI50 (KM12) was > 100 µM (inactive). The GI50 (HOP-62) was > 100 µM (inactive), the GI50 (SN12C) was > 100 µM (inactive) and the GI50 (NCI-H460) was > 100 µM (inactive). The GI50 (K562) was > 100 µM (inactive), the GI50 (HCT-116) was > 100 µM (inactive) and the GI50 (SK-MEL-5) was > 100 µM (inactive). The GI50 (A549) was > 70.8 µM (inactive), the GI50 (IGROV-1) was > 100 µM (inactive) and the GI50 (OVCAR-8) was > 100 µM (inactive). For the same compound, the GI50 (SK-OV-3) was > 100 µM (inactive) and the GI50 (EKVX) was > 100 µM (inactive).
